Measurements taken from a compilation of properties of binary mixtures (doi:10.1007/s10953-016-0490-x).

Experiment: xn = mol fraction of the nth substance listed
Conditions: 100 kPa

CCOC(C)=O + CCCC[n+]1ccn(C)c1.O=S(=O)([O-])C(F)(F)F
x2 = 0
Conditions	speed of sound [m/s]	viscosity [mPa·s]
303.15 K	1118.3	0.4
308.15 K	1096	0.37
313.15 K	1073.7	0.35
318.15 K	1051.7	0.34
323.15 K	1029.5	0.33

CCCC[n+]1ccn(C)c1.O=S(=O)([O-])C(F)(F)F + CCOC(C)=O
Conditions	speed of sound [m/s]	viscosity [mPa·s]
298.15 K, x1 = 0.0991	1172.2	1.27
298.15 K, x1 = 0.1916	1209.8	4.59
298.15 K, x1 = 0.3056	1252.1	10.8
298.15 K, x1 = 0.3978	1279.4	16
298.15 K, x1 = 0.5067	1310.3	22
298.15 K, x1 = 0.7138	1361.8	35
298.15 K, x1 = 0.7987	1374.2	41.8
298.15 K, x1 = 1	1393.2	82
303.15 K, x1 = 0.0991	1153.5	0.99
303.15 K, x1 = 0.1916	1191.9	3.76
303.15 K, x1 = 0.3056	1236.1	9
303.15 K, x1 = 0.5067	1296.5	18.5
303.15 K, x1 = 0.6095	1324.9	23.6
303.15 K, x1 = 0.7138	1349.9	29.1
303.15 K, x1 = 0.7987	1362.1	34.7
303.15 K, x1 = 0.8932	1371.6	44.9
308.15 K, x1 = 0.0991	1132.8	0.89
308.15 K, x1 = 0.1916	1174	3.12
308.15 K, x1 = 0.3056	1220.2	7.3
308.15 K, x1 = 0.3978	1251.5	10.8
308.15 K, x1 = 0.5067	1282.6	15.1
308.15 K, x1 = 0.6095	1312.1	19.6
308.15 K, x1 = 0.7138	1338.2	24.6
308.15 K, x1 = 0.7987	1351	29.1
308.15 K, x1 = 0.8932	1359.7	37.1
308.15 K, x1 = 1	1371.7	53
313.15 K, x1 = 0.1916	1156.4	2.89
313.15 K, x1 = 0.3056	1204.4	6.6
313.15 K, x1 = 0.3978	1237.6	9.8
313.15 K, x1 = 0.5067	1268.7	13.5
313.15 K, x1 = 0.6095	1300.4	17.1
313.15 K, x1 = 0.7138	1326.8	20.9
313.15 K, x1 = 0.7987	1338.3	24.6
313.15 K, x1 = 0.8932	1349.5	31
318.15 K, x1 = 0.0991	1091.7	0.79
318.15 K, x1 = 0.3056	1188.6	5.8
318.15 K, x1 = 0.3978	1223.7	8.5
318.15 K, x1 = 0.5067	1254	11.7
318.15 K, x1 = 0.6095	1288	14.8
318.15 K, x1 = 0.7138	1314.3	18
318.15 K, x1 = 0.7987	1326.4	21.1
318.15 K, x1 = 0.8932	1337.3	26.2
323.15 K, x1 = 0.0991	1071.3	0.75
323.15 K, x1 = 0.1916	1120.7	2.26
323.15 K, x1 = 0.3056	1172.8	5
323.15 K, x1 = 0.3978	1210.9	7.2
323.15 K, x1 = 0.5067	1240.3	9.9
323.15 K, x1 = 0.6095	1274.9	12.9
323.15 K, x1 = 0.7138	1303.2	15.6
323.15 K, x1 = 1	1338.8	30.6
